Experimental data: patent publication EP4603105A1, “PHARMACEUTICAL COMPOSITION CONTAINING CYCLIC COMPOUND HAVING SELECTIVE KRAS INHIBITORY EFFECT AGAINST HRAS AND NRAS” (CHUGAI SEIYAKU KABUSHIKI KAISHA, priority 2022, dated 2024)
Where a SMILES comes first, the peptide text is derived from it. Bridges are numbered along the chain shown (N, C = ends). [ ]: non-standard residue; d: D form. The star is where a group is joined. hPhe(3-Cl-4-CF3) = N[C@@H](CCc1ccc(C(F)(F)F)c(Cl)c1)C(=O)O; NPrPhe(4-CF3) = CCCN[C@@H](Cc1ccc(C(F)(F)F)cc1)C(=O)O; NMeGly(cPent) = CN[C@H](C(=O)O)C1CCCC1; Hyp = O=C(O)[C@@H]1C[C@@H](O)CN1; NMeD = CN[C@@H](CC(=O)O)C(=O)O; NMeL = CN[C@@H](CC(C)C)C(=O)O; Morpholide = C1CN(*)CCO1; Ac5c = NC1(C(=O)O)CCCC1; Aze = O=C(O)[C@@H]1CCN1; Abu = CC[C@H](N)C(=O)O; Sar = CNCC(=O)O

Assays:
[1] = tested on: human lung cancer strain NCI-H441; format: cell-based
Summary of the method: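 Signal came from […] measured per well once the reagent was added. Beforehand, cells were cultured at 37°C and 5% carbon dioxide on a compound series serially diluted in dimethyl sulfoxide.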

[2] = target: GDP-bound NRAS wild-type protein (Homo sapiens, UniProt P01111); test: Binding to NRAS by surface plasmon resonance (SPR), KD and KD ratio to KRAS
Summary of the method: (§1)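 Recombinant RAS proteins bearing a biotinylated Avi tag and loaded with GDP served as the captured ligand, recaptured fresh every cycle. Binding responses were referenced to an uncoated surface and a buffer-only blank cycle. Dissociation constants were obtained by 1:1 model fitting at 30°C.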

[3] = target: GDP-bound KRAS wild-type protein (Homo sapiens, UniProt P01116); test: Binding to KRAS by surface plasmon resonance (SPR), dissociation constant KD; details: 1:1 binding model
Summary of the method: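 Affinity is measured by surface plasmon resonance at 30°C against captured, GDP-loaded RAS carrying a biotinylated Avi tag. Compounds are titrated by single-cycle kinetics, and KD comes from a 1:1 fit.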

HRAS wild-type protein = HRAS wild-type protein (Homo sapiens, UniProt P01112); test: Binding to HRAS by surface plasmon resonance (SPR), KD and KD ratio to KRAS
Summary of the method: as §1

[4] = ratio of KD for GDP-bound NRAS wild-type protein to KD for KRAS
[5] = ratio of KD for HRAS wild-type protein to KD for KRAS
[6] = ratio of the KD value with respect to GDP-bound NRAS wild-type protein to the KD value with respect to KRAS
[7] = ratio of the KD value with respect to HRAS wild-type protein to the KD value with respect to KRAS
[8] = ratio of KD value for GDP-bound NRAS wild-type protein to KD value for KRAS (SPR)
[9] = ratio of KD value for HRAS wild-type protein to KD value for KRAS (SPR)

GDP-bound KRAS wild-type protein, sequence (P01116 1-188 isoform P01116-2): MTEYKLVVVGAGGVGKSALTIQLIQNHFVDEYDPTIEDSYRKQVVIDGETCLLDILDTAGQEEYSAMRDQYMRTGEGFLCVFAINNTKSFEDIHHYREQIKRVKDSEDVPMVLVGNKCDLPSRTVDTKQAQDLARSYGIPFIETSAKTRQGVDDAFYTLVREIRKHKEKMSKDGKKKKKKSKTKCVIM
HRAS wild-type protein, sequence (P01112 whole entry): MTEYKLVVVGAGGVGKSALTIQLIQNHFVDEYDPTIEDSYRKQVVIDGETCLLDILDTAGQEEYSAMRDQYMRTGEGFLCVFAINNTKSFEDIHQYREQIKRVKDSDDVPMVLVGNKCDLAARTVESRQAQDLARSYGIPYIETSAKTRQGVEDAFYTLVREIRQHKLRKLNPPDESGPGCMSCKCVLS
GDP-bound NRAS wild-type protein, sequence (P01111 whole entry): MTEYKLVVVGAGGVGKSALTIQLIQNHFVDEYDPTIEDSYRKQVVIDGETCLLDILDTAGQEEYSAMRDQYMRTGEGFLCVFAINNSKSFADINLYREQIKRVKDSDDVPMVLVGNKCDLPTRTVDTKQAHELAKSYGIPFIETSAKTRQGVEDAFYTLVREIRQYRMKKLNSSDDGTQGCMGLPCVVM

Compound	IC50 [1] [nM]	NRAS /KRAS [2, 4]	Kd [3] [nM]	HRAS /KRAS (HRAS wild-type protein; [5])	NRAS /KRAS [2, 6]	Kd ([3]; Single Cycle Kinetics) [nM]	HRAS /KRAS (HRAS wild-type protein; [7])	NRAS /KRAS [2, 8]	HRAS /KRAS (HRAS wild-type protein; [9])
CCCC[C@H]1C(=O)N[C@@H]([C@@H](C)CC)C(=O)N(C)CC(=O)N(C)[C@H]2C/C=C\CCN(C2=O)[C@@H](Cc2ccc(C)cc2)C(=O)N(C)CC(=O)N[C@@H](CCc2cc(F)c(C(F)(F)F)c(F)c2)C(=O)N2C[C@H](OCC)C[C@H]2C(=O)NC2(CC(C)(C)C2)C(=O)N(C)[C@@H](C2CCCC2)C(=O)N(C)[C@H](C(=O)N(C)C)CC(=O)N1C [PP2800]	7.9	A (a compound having 10 or more and less than 20 is denoted as A)	0.056	A (a compound having 10 or more and less than 20 is denoted as A)	–	–	–	–	–
CCC[C@H]1C(=O)N[C@@H]([C@@H](C)CC)C(=O)N(C)CC(=O)N(C)[C@H]2C/C=C\CCN(C2=O)[C@@H](Cc2ccc(C)cc2)C(=O)N(C)CC(=O)N[C@@H](CCc2cc(Cl)c3sccc3c2)C(=O)N2C[C@H](OCC)C[C@H]2C(=O)NC2(CC(C)(C)C2)C(=O)N(C)[C@@H](C2CCCC2)C(=O)N(C)[C@H](C(=O)N(C)C)CC(=O)N1C [PP2947]	3.5	B (a compound having 3 or more and less than 10 is denoted as B)	0.12	B (a compound having 3 or more and less than 10 is denoted as B)	–	–	–	–	–
CCCN1C(=O)CN(C)C(=O)[C@@H]2CCN2C(=O)[C@H]([C@@H](C)CC)NC(=O)[C@H](CC(C)C)N(C)C(=O)C[C@@H](C(=O)N2CCOCC2)N(C)C(=O)[C@H](C2CCCC2)N(C)C(=O)C2(CCCC2)NC(=O)[C@@H]2C[C@@H](OC)CN2C(=O)[C@H](CCc2ccc(C(F)(F)F)c(Cl)c2)NC(=O)CN(C)C(=O)[C@@H]1Cc1ccc(C(F)(F)F)cc1 [PP0309] ([NMeL]I[Aze][Sar][NPrPhe(4-CF3)][Sar][hPhe(3-Cl-4-CF3)][Hyp](Me)[Ac5c][NMeGly(cPent)][NMeD]-Morpholide; lactam N-11)	11.7	B (a compound having 3 or more and less than 10 is denoted as B)	0.29	B (a compound having 3 or more and less than 10 is denoted as B)	–	–	–	–	–
CCC[C@H]1C(=O)N[C@@H](C2CCCCC2)C(=O)N(C)CC(=O)N(C)[C@H]2C/C=C\CCN(C2=O)[C@@H](Cc2ccc(C)cc2)C(=O)N(C)CC(=O)N[C@@H](CCc2ccc(C(F)(F)F)c(Cl)c2)C(=O)N2C[C@H](OCC)C[C@H]2C(=O)NC2(CC(C)(C)C2)C(=O)N(C)[C@@H](C2CCCC2)C(=O)N(C)[C@H](C(=O)N(C)C)CC(=O)N1C [PP2998]	8.3	A (a compound having 10 or more and less than 20 is denoted as A)	0.43	AA (a compound having 20 or more is denoted as AA)	–	–	–	–	–
CCC[C@H]1C(=O)N[C@@H]([C@@H](C)CC)C(=O)N(C)CC(=O)N(C)[C@H]2C/C=C\CCN(C2=O)[C@@H](Cc2ccc(C)cc2)C(=O)N(C)CC(=O)N[C@@H](CCc2cc(F)c(C(F)(F)F)c(F)c2)C(=O)N2C[C@H](OCC)C[C@H]2C(=O)NC2(CC(C)(C)C2)C(=O)N(C)[C@@H](CC(C)C)C(=O)N(C)[C@H](C(=O)N(C)C)CC(=O)N1C [PP2995]	12.9	A (a compound having 10 or more and less than 20 is denoted as A)	0.32	A (a compound having 10 or more and less than 20 is denoted as A)	–	–	–	–	–
CC[C@H](C)[C@@H]1NC(=O)[C@H](CC(C)C)N(C)C(=O)C[C@@H](C(=O)N(C)C)N(C)C(=O)[C@H](C2CCCC2)N(C)C(=O)C2(CCCC2)NC(=O)[C@@H]2CCCN2C(=O)[C@H](CCc2ccc(C(F)(F)F)c(Cl)c2)NC(=O)CN(C)C(=O)[C@H](Cc2ccc(C)cc2)N2CC=C(C)C[C@@H](C2=O)N(C)C(=O)CN(C)C1=O [PP0620]	38.4	–	–	–	C (A compound having a KD ratio of 0.1 or more and less than 3 is denoted as C)	0.69	C (A compound having a KD ratio of 0.1 or more and less than 3 is denoted as C)	–	–
CCO[C@@H]1C[C@H]2C(=O)N(C)C3(CCC3)C(=O)N(C)[C@@H](C3CCCC3)C(=O)N(C)[C@H](C(=O)N(C)C)CC(=O)N(C)[C@@H](CC3CC3)C(=O)N[C@@H]([C@@H](C)CC)C(=O)N(C)CC(=O)N(C)[C@H]3C/C=C\CCN(C3=O)[C@@H](Cc3ccc(C)cc3)C(=O)N(C)CC(=O)N[C@@H](CCc3cc(F)c(C(F)(F)F)c(F)c3)C(=O)N2C1 [PP1795]	3	–	–	–	–	0.031	–	A (a compound having 10 or more and less than 20 is denoted as A)	B (a compound having 3 or more and less than 10 is denoted as B)
C=CCCCCN(C)C(=O)[C@@H]1CC(=O)N(C)[C@@H](CC2CC2)C(=O)N[C@@H](CC=C)C(=O)N(C)CC(=O)N(C)[C@H]2C/C=C\CCN(C2=O)[C@@H](Cc2ccc(C(F)(F)F)cc2)C(=O)N(C)CC(=O)N[C@@H](CCc2cc(F)c(C(F)(F)F)c(F)c2)C(=O)N2C[C@H](OCC)C[C@H]2C(=O)NC2(CCC2)C(=O)N(C)[C@@H](C2CCCC2)C(=O)N1C [PP1554]	121	–	–	–	–	2.7	–	A (a compound having 10 or more and less than 20 is denoted as A)	A (a compound having 10 or more and less than 20 is denoted as A)
CCO[C@@H]1C[C@H]2C(=O)NC3(CCC3)C(=O)N(C)[C@@H](C3CCCC3)C(=O)N(C)[C@H](C(=O)N3CCOCC3)CC(=O)N(C)[C@@H](Cc3ccccc3)C(=O)N[C@@H]([C@@H](C)CC)C(=O)N(C)CC(=O)N(C)[C@H]3CCCCCN(C3=O)[C@@H](Cc3ccc(C(F)(F)F)cc3)C(=O)N(C)CC(=O)N[C@@H](CCc3cc(F)c(C(F)(F)F)c(F)c3)C(=O)N2C1 [PP0687]	44.1	–	–	–	B (a compound having 3 or more and less than 10 is denoted as B)	0.64	B (a compound having 3 or more and less than 10 is denoted as B)	–	–
CC[C@H](C)[C@@H]1NC(=O)[C@H](CC(C)C)N(C)C(=O)C[C@@H](C(=O)N(C)C)N(C)C(=O)[C@H](C2CCCC2)N(C)C(=O)C2(CC(C)(C)C2)NC(=O)[C@@H]2C[C@@H](C)CN2C(=O)[C@H](CCc2cc(F)c(C(F)(F)F)c(F)c2)NC(=O)CN(C)C(=O)[C@H](Cc2ccc(C)cc2)N2CC/C=C\C[C@@H](C2=O)N(C)C(=O)CN(C)C1=O [PP2223]	5.3	–	–	–	A (a compound having 10 or more and less than 20 is denoted as A)	0.1	A (a compound having 10 or more and less than 20 is denoted as A)	–	–
CCO[C@@H]1C[C@H]2C(=O)NC3(CCC3)C(=O)N(C)[C@@H](C3CCCC3)C(=O)N(C)[C@H](C(=O)N(C)C)CC(=O)N(C)[C@@H](CC3CCCCC3)C(=O)N[C@@H]([C@@H](C)CC)C(=O)N(C)CC(=O)N(C)[C@H]3CCCCCN(C3=O)[C@@H](Cc3ccc(C(F)(F)F)cc3)C(=O)N(C)CC(=O)N[C@@H](CCc3cc(F)c(C(F)(F)F)c(F)c3)C(=O)N2C1 [PP0671]	32.5	–	–	–	B (a compound having 3 or more and less than 10 is denoted as B)	0.67	B (a compound having 3 or more and less than 10 is denoted as B)	–	–
CCC[C@H]1C(=O)N[C@@H]([C@@H](C)CC)C(=O)N(C)CC(=O)N(C)[C@H]2C/C=C\CCN(C2=O)[C@@H](Cc2ccc(C)cc2)C(=O)N(C)CC(=O)N[C@@H](CCc2cc(F)c(C(F)(F)F)c(F)c2)C(=O)N2C[C@H](OCC)C[C@H]2C(=O)NC2(CC(C)(C)C2)C(=O)N(C)[C@@H](C(CC)CC)C(=O)N(C)[C@H](C(=O)N(C)C)CC(=O)N1C [PP2064]	13.6	–	–	–	A (a compound having 10 or more and less than 20 is denoted as A)	0.26	A (a compound having 10 or more and less than 20 is denoted as A)	–	–
C#CC[C@H]1C(=O)N[C@@H]([C@@H](C)CC)C(=O)N(C)CC(=O)N(C)[C@H]2C/C=C\CCN(C2=O)[C@@H](Cc2ccc(C(F)(F)F)cc2)C(=O)N(C)CC(=O)N[C@@H](CCc2ccc(C(F)(F)F)c(OC)c2)C(=O)N2C[C@H](OCC)C[C@H]2C(=O)NC2(CCCC2)C(=O)N(C)[C@@H](C2CCC2)C(=O)N(C)[C@H](C(=O)N2CCCCC2)CC(=O)N1C [PP3131]	157	A (a compound having 10 or more and less than 20 is denoted as A)	2.8	A (a compound having 10 or more and less than 20 is denoted as A)	–	–	–	–	–
CCCN1C(=O)CN(C)C(=O)[C@@H]2CCN2C(=O)[C@H](CC)NC(=O)[C@H](CC(C)C)N(C)C(=O)C[C@@H](C(=O)N2CCOCC2)N(C)C(=O)[C@H](C2CCCC2)N(C)C(=O)C2(CCCC2)NC(=O)[C@@H]2CCCN2C(=O)[C@H](CCc2ccc(C(F)(F)F)c(Cl)c2)NC(=O)CN(C)C(=O)[C@@H]1Cc1ccc(C(F)(F)F)cc1 [PP0303] ([NMeL][Abu][Aze][Sar][NPrPhe(4-CF3)][Sar][hPhe(3-Cl-4-CF3)]P[Ac5c][NMeGly(cPent)][NMeD]-Morpholide; lactam N-11)	349	B (a compound having 3 or more and less than 10 is denoted as B)	4	B (a compound having 3 or more and less than 10 is denoted as B)	–	–	–	–	–
